In patent US7329664B2, “Substituted (7-pyridyl-4-phenylamino-quinazolin-2-yl)-methanol analogues” (Neurogen Corporation, priority 2003, dated 2008) one finds EC90 and IC50 data, which are given here for five molecules.

Assay [1] has as its target T1, human capsaicin receptor (Homo sapiens, UniProt Q8NER1).
T1 construct: transfected with the pBK-CMV expression construct encoding the full length human capsaicin receptor; expressed in transfected cells
The experiment in a line: Calcium mobilization assay, agonist response to capsaicin (Example 6). It is filed as cell-based. Conditions: cells expressing human capsaicin receptor, positive control; read-out: approximate EC90 concentration. The method, then:
Cells transfected with expression plasmids (as described in Example 4) and thereby expressing human capsaicin receptor are seeded and grown to 70-90% confluency in FALCON black-walled, clear-bottomed 96-well plates (#3904, BECTON-DICKINSON, Franklin Lakes, N.J.). The culture medium is emptied from the 96 well plates and FLUO-3 AM calcium sensitive dye (Molecular Probes, Eugene, Oreg.) is added to each well (dye solution: 1 mg FLUO-3 AM, 440 μL DMSO and 440 μl 20% pluronic acid in DMSO, diluted 1:250 in Krebs-Ringer HEPES (KRH) buffer (25 mM HEPES, 5 mM KCl, 0.96 mM NaH2PO4, 1 mM MgSO4, 2 mM CaCl2, 5 mM glucose, 1 mM probenecid, pH 7.4), 50 μl diluted solution per well). […]
To measure the ability of a test compound to agonize or antagonize a calcium mobilization response in cells expressing capsaicin receptors to capsaicin or other vanilloid agonist, the EC50 of the agonist capsaicin is first determined. […] Capsaicin-induced calcium mobilization is monitored using either FLUOROSKAN ASCENT (Labsystems; Franklin, Mass.) or FLIPR (fluorometric imaging plate reader system; Molecular Devices, Sunnyvale, Calif.) instruments. […] In this equation, y is the maximum fluorescence signal, x is the concentration of the agonist or antagonist (in this case, capsaicin), a is the Emax, b corresponds to the EC50 value and c is the Hill coefficient. […]

Assay [2] concerns the target T1, human capsaicin receptor. As to the kind of experiment: Calcium mobilization assay, capsaicin receptor antagonist activity (Example 6). It is filed as cell-based. The following applies: read-out: IC50 in standard assay of capsaicin receptor activity. Here is the method:
Human embryonic kidney (HEK293) cells were transfected with the pBK-CMV expression construct encoding the full length human capsaicin receptor using standard methods. The transfected cells were selected for two weeks in media containing G418 (400 μg/ml) to obtain a pool of stably transfected cells. Independent clones were isolated from this pool by limiting dilution to obtain clonal stable cell lines for use in subsequent experiments.
This Example illustrates representative calcium mobilization assays for use in evaluating test compounds for agonist and antagonist activity.
Cells transfected with expression plasmids (as described in Example 4) and thereby expressing human capsaicin receptor are seeded and grown to 70-90% confluency in FALCON black-walled, clear-bottomed 96-well plates (#3904, BECTON-DICKINSON, Franklin Lakes, N.J.). The culture medium is emptied from the 96 well plates and FLUO-3 AM calcium sensitive dye (Molecular Probes, Eugene, Oreg.) is added to each well (dye solution: 1 mg FLUO-3 AM, 440 μL DMSO and 440 μl 20% pluronic acid in DMSO, diluted 1:250 in Krebs-Ringer HEPES (KRH) buffer (25 mM HEPES, 5 mM KCl, 0.96 mM NaH2PO4, 1 mM MgSO4, 2 mM CaCl2, 5 mM glucose, 1 mM probenecid, pH 7.4), 50 μl diluted solution per well). […] After the incubation, the dye is emptied from the plates, and the cells are washed once with KRH buffer, and resuspended in KRH buffer.
To measure the ability of a test compound to agonize or antagonize a calcium mobilization response in cells expressing capsaicin receptors to capsaicin or other vanilloid agonist, the EC50 of the agonist capsaicin is first determined. An additional 20 μl of KRH buffer and 1 μl DMSO is added to each well of cells, prepared as described above. 100 μl capsaicin in KRH buffer is automatically transferred by the FLIPR instrument to each well. Capsaicin-induced calcium mobilization is monitored using either FLUOROSKAN ASCENT (Labsystems; Franklin, Mass.) or FLIPR (fluorometric imaging plate reader system; Molecular Devices, Sunnyvale, Calif.) instruments. […] In this equation, y is the maximum fluorescence signal, x is the concentration of the agonist or antagonist (in this case, capsaicin), a is the Emax, b corresponds to the EC50 value and c is the Hill coefficient. […]
Test compounds are dissolved in DMSO, diluted in 20 μl KRH buffer so that the final concentration of test compounds in the assay well is between 1 μM and 5 μM, and added to cells prepared as described above. […] Just prior to determining the fluorescence response, 100 μl capsaicin in KRH buffer at twice the EC50 concentration determined as described above is automatically added by the FLIPR instrument to each well of the 96 well plate for a final sample volume of 200 μl and a final capsaicin concentration equal to the EC50. […]

T1 sequence (Q8NER1 whole entry): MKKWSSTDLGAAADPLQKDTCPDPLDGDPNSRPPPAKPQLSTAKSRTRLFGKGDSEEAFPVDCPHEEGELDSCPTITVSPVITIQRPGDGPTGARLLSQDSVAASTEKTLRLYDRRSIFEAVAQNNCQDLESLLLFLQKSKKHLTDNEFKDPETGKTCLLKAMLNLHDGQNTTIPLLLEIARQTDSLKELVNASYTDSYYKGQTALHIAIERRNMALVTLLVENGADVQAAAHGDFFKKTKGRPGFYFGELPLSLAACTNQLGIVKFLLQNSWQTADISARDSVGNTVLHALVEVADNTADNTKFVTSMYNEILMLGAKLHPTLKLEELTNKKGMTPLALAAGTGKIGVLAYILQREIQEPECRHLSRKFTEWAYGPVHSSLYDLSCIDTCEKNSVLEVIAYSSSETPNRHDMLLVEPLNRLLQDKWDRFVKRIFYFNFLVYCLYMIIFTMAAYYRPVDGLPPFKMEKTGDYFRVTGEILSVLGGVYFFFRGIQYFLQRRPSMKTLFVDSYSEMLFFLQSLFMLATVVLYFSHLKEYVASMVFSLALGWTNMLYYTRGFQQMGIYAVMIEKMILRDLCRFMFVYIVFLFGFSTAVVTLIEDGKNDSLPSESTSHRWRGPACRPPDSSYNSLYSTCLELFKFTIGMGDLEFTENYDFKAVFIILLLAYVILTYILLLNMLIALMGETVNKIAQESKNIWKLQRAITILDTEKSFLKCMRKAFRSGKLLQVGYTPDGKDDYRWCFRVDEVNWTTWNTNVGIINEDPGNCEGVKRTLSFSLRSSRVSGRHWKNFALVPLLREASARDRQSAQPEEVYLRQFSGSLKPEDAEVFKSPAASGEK

Consider `COc1cc(CNC(=O)CCCC/C=C/C(C)C)ccc1O` [capsaicin], for which the EC90 at human capsaicin receptor [1] was around 100 nM.

Consider `COCc1nc(Nc2ccc(C(F)(F)F)cn2)c2ccc(-c3ncccc3C(F)(F)F)nc2n1` [Compound 133, [2-Methoxymethyl-7-(3-trifluoromethyl-pyridin-2-yl)-pyrido[2,3-d]pyrimidin-4-yl]-(5-trifluoromethy1-pyridin-2-yl)-amine], for which the IC50 at human capsaicin receptor [2] is below 10 nM.

As for `COCc1nc(Nc2ccc(C(F)(F)F)cc2)c2ccc(-c3ncccc3C)cc2n1` [Compound 3, [2-Methoxymethyl-7-(3-methylpyridin-2-yl)-quinazolin-4-yl)-(4-trifluoromethylphenyl)-amine], on human capsaicin receptor [2], the IC50 is below 10 nM.

Regarding `COCc1nc(Nc2ccc(C(F)(F)F)cc2)c2ccc(-c3ncccc3Cl)nc2n1` [Compound 2, [7-(3-Chloro-pyridin-2-yl)-2-methoxymethyl-pyrido[2,3-d]pyrimidin-4-yl]-(4-trifluoromethyl-phenyl)-amine], the IC50 at human capsaicin receptor [2] was below 10 nM.

In the case of `CC(C)COCc1nc(Nc2ccc(C(F)(F)F)cn2)c2ccc(-c3ncccc3C(F)(F)F)nc2n1` [Compound 132, [2-lsobutoxymethyl-7-(3-trifluoromethyl-pyridin-2-yl)-pyrido[2,3-d]pyrimidin-4-yl]-(5-trifluoromethyl-pyridin-2-yl)-amine], the IC50 on human capsaicin receptor [2] is below 10 nM.
